Series [1] can be described thus: Solubility at pH 7.4. It counts as physicochemical. The note with it: buffer.
Series [2] addresses Beta-3 adrenergic receptor (Homo sapiens, UniProt P13945).
Description: Agonist activity at human recombinant beta3 adrenergic receptor expressed in CHO cells assessed as induction of intracellular cAMP accumulation after 30 to 45 mins
In series [3] the target is Beta-1 adrenergic receptor (Homo sapiens, UniProt P08588).
Description: Agonist activity at human recombinant beta-1 adrenergic receptor expressed in CHO cells assessed as induction of intracellular cAMP accumulation after 30 to 45 mins
A short description of series [4]: Bronchodialatory activity against electrically-stimulated contraction in guinea pig trachea assessed as time taken for inducing 50% maximum relaxant effect.
The species named for series [5] is Cavia porcellus. As to the kind of experiment: Bronchodialatory activity against electrically-stimulated contraction in guinea pig trachea assessed as inhibition of recovery of contractile effect measured after 3 hrs of drug washout. Format: functional, tissue-based.
Series [6] has as its target Beta-2 adrenergic receptor (Homo sapiens, UniProt P07550).
Description: Agonist activity at human recombinant beta2 adrenergic receptor expressed in CHO cells assessed as induction of intracellular cAMP accumulation after 30 to 45 mins
Series [7] is filed under the species Cavia porcellus. As to the kind of experiment: Bronchodialatory activity against electrically-stimulated contraction in guinea pig trachea assessed as inhibition of recovery of contractile effect measured after 1 hr of drug washout. It counts as functional, tissue-based.
A short description of series [8]: Oral bioavailability in rat. Format: ADME, organism-based. The note with it: in vivo.
The test system of series [9] is Cavia porcellus. As to the kind of experiment: Ex vivo bronchodilatory activity in guinea pig assessed as protection against histamine-induced bronchospasm administered via nebulizer. Format: functional.
For series [10], the system named is Cavia porcellus. The series can be described thus: Ex vivo bronchodilatory activity against histamine-induced bronchospasm in guinea pig assessed as time taken for 50% recovery of bronchospasm at EC90 administered via nebulizer. Format: functional.
Series [11] is described as follows: Plasma clearance in Han Wistar rat at 0.25 mg/kg, iv after 8 hrs by LC/MS/MS analysis. Format: ADME, organism-based. Details: dose 0.25 mg/kg, route intravenous.
The nature of series [12]: Volume of distribution at steady state in Han Wistar rat at 0.25 mg/kg, iv after 8 hrs by LC/MS/MS analysis. The following applies: in vivo, read-out: Vdss. Further details: dose 0.25 mg/kg, route intravenous. It counts as ADME, organism-based.
Series [13] can be described thus: Half life in Han Wistar rat at 0.25 mg/kg, iv by LC/MS/MS analysis. Format: ADME, organism-based. The note with it: in vivo. Further details: dose 0.25 mg/kg, route intravenous.
Series [14] in a line: Cmax in Han Wistar rat at 2 mg/kg, po after 8 hrs by LC/MS/MS analysis. It counts as ADME, organism-based. Details: dose 2 mg/kg, route oral. The following applies: in vivo.
The nature of series [15]: Oral bioavailability in Han Wistar rat at 2 mg/kg after 8 hrs by LC/MS/MS analysis. It counts as ADME, organism-based. The note with it: in vivo.
Series [16] has as its system Cavia porcellus. As to the kind of experiment: Ex vivo bronchodilatory activity against histamine-induced bronchospasm in guinea pig assessed as time taken for 50% recovery of bronchospasm at 10-fold EC90 administered via nebulizer. It counts as functional.

Calls of active or inactive are those of the source. No cut-off for these calls is given here. Bounds are passed on as bounds.

Beta-3 adrenergic receptor, sequence (P13945 whole entry): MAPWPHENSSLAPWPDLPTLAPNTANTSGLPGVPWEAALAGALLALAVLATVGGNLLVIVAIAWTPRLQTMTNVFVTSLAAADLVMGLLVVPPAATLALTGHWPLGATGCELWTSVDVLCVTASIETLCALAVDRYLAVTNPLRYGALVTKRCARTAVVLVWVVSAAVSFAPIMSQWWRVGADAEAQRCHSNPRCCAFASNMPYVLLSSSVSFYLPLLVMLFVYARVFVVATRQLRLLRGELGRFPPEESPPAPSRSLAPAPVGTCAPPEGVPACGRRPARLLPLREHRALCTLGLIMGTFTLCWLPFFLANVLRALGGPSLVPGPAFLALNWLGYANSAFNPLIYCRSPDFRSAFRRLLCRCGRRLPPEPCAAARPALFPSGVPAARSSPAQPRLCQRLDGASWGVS
Beta-2 adrenergic receptor, sequence (P07550 whole entry): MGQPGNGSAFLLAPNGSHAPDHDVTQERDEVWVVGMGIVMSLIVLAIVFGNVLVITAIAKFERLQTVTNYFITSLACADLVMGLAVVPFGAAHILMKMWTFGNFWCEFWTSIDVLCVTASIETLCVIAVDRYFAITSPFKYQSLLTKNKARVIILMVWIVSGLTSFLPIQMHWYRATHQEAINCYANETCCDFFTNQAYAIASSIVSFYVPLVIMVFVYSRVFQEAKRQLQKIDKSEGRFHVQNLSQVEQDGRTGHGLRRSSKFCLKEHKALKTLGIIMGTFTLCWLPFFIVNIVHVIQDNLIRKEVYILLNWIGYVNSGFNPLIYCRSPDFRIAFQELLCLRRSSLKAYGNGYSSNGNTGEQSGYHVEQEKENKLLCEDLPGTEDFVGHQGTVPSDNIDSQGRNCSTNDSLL
Beta-1 adrenergic receptor, sequence (P08588 whole entry): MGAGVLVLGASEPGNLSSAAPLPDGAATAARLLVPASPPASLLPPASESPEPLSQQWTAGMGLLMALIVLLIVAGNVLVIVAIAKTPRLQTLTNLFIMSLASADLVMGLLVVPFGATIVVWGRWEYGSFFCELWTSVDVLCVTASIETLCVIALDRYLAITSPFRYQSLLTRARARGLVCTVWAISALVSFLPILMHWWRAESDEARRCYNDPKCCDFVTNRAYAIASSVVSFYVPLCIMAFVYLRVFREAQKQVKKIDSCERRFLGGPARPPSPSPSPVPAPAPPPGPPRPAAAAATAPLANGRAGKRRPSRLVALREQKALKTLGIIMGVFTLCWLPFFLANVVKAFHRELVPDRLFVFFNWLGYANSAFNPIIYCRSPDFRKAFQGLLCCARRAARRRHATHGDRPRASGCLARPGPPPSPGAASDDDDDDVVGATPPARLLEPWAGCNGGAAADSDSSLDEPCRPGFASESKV

For orientation: solubility means the concentration that dissolves in the medium under given conditions. High values mean a readily soluble substance, low ones a poorly soluble substance. In turn, `O=C(O)/C(=C/c1ccccc1)c1ccccc1.OCc1cc([C@@H](O)CNCCCCCCOCCOCc2c(Cl)cccc2Cl)ccc1O` [VILANTEROL .ALPHA.-PHENYL CINNAMATE] gave a solubility in series [1] of 190 µg/mL.
The EC50 is the concentration needed to bring the measured effect to its halfway point. In [2], `OCCOCCCCCCNC[C@H](O)c1ccc(O)c(CO)c1` gave an EC50 of 12600 nM.
On to `O=C(O)C(c1ccccc1)(c1ccccc1)c1ccccc1.OCc1cc([C@@H](O)CNCCCCCCOCCOCc2c(Cl)cccc2Cl)ccc1O` [VILANTEROL TRIFENATATE], for which the solubility in [1] stood at 33 µg/mL.
Consider `OCc1cc([C@@H](O)CNCCCCCCOCCOCc2cc(Cl)ccc2Cl)ccc1O`, for which the 50% effective concentration (EC50) in series [3] is 12.6 nM; in series [2], 7.94 nM.
On to `CC(=O)O.OCc1cc([C@@H](O)CNCCCCCCOCCOCc2ccccc2)ccc1O`, for which, in series [4], the Time is listed as 4.8 min. Also, the result in the series filed under Cavia porcellus [5] was Active. The EC50 in series [6] was 2.51 nM; in series [3] it was 31.6 nM; in [2], 39.8 nM.
Take `NS(=O)(=O)c1cccc(COCCOCCCCCCNC[C@H](O)c2ccc(O)c(CO)c2)c1`: the half-maximal effective concentration (EC50) in series [6] was 1.58 nM; in [3], 50.1 nM; in [2] it was 126 nM.
What is called bioavailability is the share of a dose that reaches the circulation, judged against a reference dose that is usually intravenous. A low value points to little systemic uptake. What is called EC90 is the concentration needed for an effect of 90%. Consider `OCc1cc(C(O)CNCCCCCCOCCCCc2ccccc2)ccc1O` (stereo not given) [SALMETEROL], for which the result in the series listed under Cavia porcellus [7] and in the series listed under Cavia porcellus [5] was Active. In addition, the bioavailability in [8] is 10%. Besides, the EC90 in the series on Cavia porcellus [9] worked out at 50000 nM. Also, in the series on Cavia porcellus [10], the Time amounted to 10 h.
Regarding `Cc1ccc(COCCOCCCCCCNC[C@H](O)c2ccc(O)c(CO)c2)cc1`, a half-maximal effect in [6] (EC50) was put at 2.51 nM.
On to `OCc1cc([C@@H](O)CNCCCCCCOCCOCc2c(Cl)cccc2Cl)ccc1O`, for which the result in the series listed under Cavia porcellus [7] and in the series filed under Cavia porcellus [5] was Active.
Consider `CC(=O)O.Cc1cc(C)cc(COCCOCCCCCCNC[C@H](O)c2ccc(O)c(CO)c2)c1`, for which the Time in series [4] came to 6.9 min. Further, the outcome in the series listed under Cavia porcellus [7] was Active. For the same compound, the EC50 in [3] is 7.94 nM; in series [2], 5.01 nM.
Take `NS(=O)(=O)c1ccc(COCCOCCCCCCNC[C@H](O)c2ccc(O)c(CO)c2)cc1`: the concentration for a half-maximal effect (EC50) in [6] is 2 nM; in series [3] it was 100 nM; in series [2], 398 nM.
Take `CS(=O)(=O)Nc1cccc(COCCOCCCCCCNC[C@H](O)c2ccc(O)c(CO)c2)c1`: the half-maximal effective concentration (EC50) in series [6] was 0.251 nM; in series [3], 12.6 nM; in series [2], 79.4 nM.
The corresponding values for `NC(=O)Nc1cccc(COCCOCCCCCCNC[C@H](O)c2ccc(O)c(CO)c2)c1` are 1.58 nM, 20 nM and 316 nM.
As to `OCc1cc([C@@H](O)CNCCCCCCOCCOCc2ccc(Cl)cc2)ccc1O`, the EC50 in [6] is 2.51 nM.
`OCc1cc([C@@H](O)CNCCCCCCOCCOCc2cccc(O)c2)ccc1O`: the 50% effective concentration (EC50) is 20 nM in [3] and 31.6 nM in [2].
One may read the clearance as the volume of plasma or blood freed of the substance per unit of time. Higher therefore signals a high capacity for elimination. Usually half-life stands for how long it takes for the measured level to halve. Read a high half-life as slow decline. The Cmax is the peak of the concentration-time curve. Turning to `CC(=O)O.OCc1cc([C@@H](O)CNCCCCCCOCCOCc2c(Cl)cccc2Cl)ccc1O` [VILANTEROL ACETATE], the Time was 6.6 min in series [4] and 17 h in the series on Cavia porcellus [16]. The same compound had a clearance in series [11] of 123 mL/min/kg. Further, the Vd in [12] is 4.4 L/kg. In addition, in [13], the half-life is 48 min. Also, the peak concentration (Cmax) in series [14] was < 2 ng/mL. Also, the bioavailability in series [15] was < 5%. Further, the EC90 in the series on Cavia porcellus [9] is 30000 nM. In [2], the concentration for a half-maximal effect (EC50) was 794 nM.
Consider `CC(=O)O.OCc1cc([C@@H](O)CNCCCCCCOCCOCc2cccc3ccccc23)ccc1O`, for which the Time in [4] is 10.2 min. In addition, the outcome in the series filed under Cavia porcellus [7] and in the series filed under Cavia porcellus [5] was Active. In addition, the values for the EC50 in series [6], in series [3] and in series [2] were 0.126 nM, 12.6 nM and 5.01 nM, respectively.
Take `OCc1cc([C@@H](O)CNCCCCCCOCCOCc2ccc(O)cc2)ccc1O`: the concentration giving a half-maximal response (EC50) is 7.94 nM in series [6], 79.4 nM in series [3] and 63.1 nM in series [2].

These data come from ChEMBL document CHEMBL1155518, “Synthesis and structure-activity relationships of long-acting beta2 adrenergic receptor agonists incorporating metabolic inactivation: an antedrug approach” (J Med Chem, 2010).
